Results taken from patent US20260200928A1, “THERAPEUTIC COMPOUNDS” (Sanofi, priority 2022, published 2026).

These molecules were tested against T1, human IL-17A (Homo sapiens, UniProt Q16552) (assay: IL-17A AlphaLISA competition assay (block of IL-17A binding to its receptor IL-17RA)). Details: mean IC50 (n≥2), block of IL-17A binding to IL-17RA.
T1 construct: purchased R&D Systems 7955-IL/CF
T1 sequence (Q16552 24-155): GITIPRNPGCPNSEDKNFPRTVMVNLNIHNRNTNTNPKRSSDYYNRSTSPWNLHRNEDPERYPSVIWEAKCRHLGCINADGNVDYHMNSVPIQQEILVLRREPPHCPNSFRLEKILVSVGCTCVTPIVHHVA
How it was run: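 Human recombinant IL-17A (7.5 nM stock) pre-incubated 30 min at RT with compound, then IL-17RA/Fc (5 nM stock) added for 90 min; AlphaLISA read with anti-Fc acceptor beads, biotinylated anti-IL-17A antibody (5 nM) and streptavidin donor beads (3 h, dark). IC50 from 4-parameter logistic fit, normalised to DMSO and 4 μM reference inhibitor; n≥2.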
In the case of `CCc1nocc1C(=O)N[C@H](C(=O)Nc1cc([C@@H](COC)N2C[C@@H](C(F)(F)F)NC2=O)ccn1)C1CCC(F)(F)CC1` [Example 198, N-((S)-1-(4,4-difluorocyclohexyl)-2-((4-((S)-2-methoxy-1-((S)-2-oxo-4-(trifluoromethyl)imidazolidin-1-yl)ethyl)pyridin-2-yl)amino)-2-oxoethyl)-3-ethylisoxazole-4-carboxamide], the IC50 is reported as 47 nM. Molecule `COCC(c1ccnc(NC(=O)[C@@H](NC(=O)c2nccn2C(C)C)[C@H]2CC[C@H](C)CC2)c1)N1C[C@@H](C(F)(F)F)NC1=O` (single isomer, unassigned) [Example 115] has an IC50 of 77 nM. Molecule `CCn1nccc1C(=O)N[C@H](C(=O)Nc1cc([C@@H](COC)N2C[C@@H](C(F)(F)F)NC2=O)ccn1)C1CCC(Cl)CC1` (stereo partly drawn) [Example 310, N-((1S)-1-(4-chlorocyclohexyl)-2-((4-((S)-2-methoxy-1-((S)-2-oxo-4-(trifluoromethyl)imidazolidin-1-yl)ethyl)pyridin-2-yl)amino)-2-oxoethyl)-1-ethyl-1H-pyrazole-5-carboxamide] has an IC50 of 71 nM. With `C[C@H](OC(C)(C)C)[C@H](NC(=O)c1nonc1C1CC1)C(=O)Nc1cc(CN2C[C@@H](C(F)(F)F)NC2=O)ccn1` [Example 116, N-((2S,3S)-3-(tert-butoxy)-1-oxo-1-((4-(((S)-2-oxo-4-(trifluoromethyl)-imidazolidin-1-yl)methyl)pyridin-2-yl)amino)butan-2-yl)-4-cyclopropyl-1,2,5-oxadiazole-3-carboxamide] the IC50 was 15400 nM. With `CCc1nocc1C(=O)N[C@H](C(=O)Nc1cc([C@@H](COC)N2C[C@@H](C(F)(F)F)NC2=O)ccn1)[C@H]1CCCC(F)(F)C1` (single isomer, unassigned) [Example 307] the IC50 was 51 nM. `COCC(c1ccnc(NC(=O)[C@@H](NC(=O)c2nc(Br)ccc2C)[C@H]2CC[C@H](C)CC2)c1)N1C[C@@H](C(F)(F)F)NC1=O` (single isomer, unassigned) [Example 94] gave an IC50 of 4860 nM. `CC[C@H](c1ccnc(NC(=O)[C@@H](NC(=O)c2nonc2C)C2CCC(F)(F)CC2)c1)N1C[C@@H](C(F)(F)F)NC1=O` [Example 211, N-((S)-1-(4,4-difluorocyclohexyl)-2-oxo-2-((4-((R)-1-((S)-2-oxo-4-(trifluoromethyl)imidazolidin-1-yl)propyl)pyridin-2-yl)amino)ethyl)-4-methyl-1,2,5-oxadiazole-3-carboxamide] showed an IC50 of 33 nM. Molecule `Cn1nccc1C(=O)NC(C(=O)Nc1cc(C(C)(C)N2C[C@@H](C(F)(F)F)NC2=O)ccn1)C1CCC(F)(F)CC1` (stereo in doubt) [Example 172, N—((S)-1-(4,4-difluorocyclohexyl)-2-oxo-2-((4-(2-((S)-2-oxo-4-(trifluoro-methyl)imidazolidin-1-yl)propan-2-yl)pyridin-2-yl)amino)ethyl)-1-methyl-1H-pyrazole-5-carboxamide] has an IC50 of 1170 nM. `CCn1nccc1C(=O)NC(C(=O)Nc1cc(CN2CC(C(F)(F)F)NC2=O)ccn1)C1CCC(F)CC1` [Example 293, 1-ethyl-N-((S)-1-((1r,4S)-4-fluorocyclohexyl)-2-oxo-2-((4-(((S)-2-oxo-4-(trifluoromethyl)imidazolidin-1-yl)methyl)pyridin-2-yl)amino)ethyl)-1H-pyrazole-5-carboxamide] showed an IC50 of 153 nM. `COC[C@H](c1ccnc(NC(=O)C(NC(=O)c2nonc2C2CC2)C2CCC(F)CC2)c1)N1C[C@@H](C(F)(F)F)NC1=O` (single isomer, unassigned) [Example 278] gave an IC50 of 1890 nM. `O=C(NCc1ccccc1)N[C@H](C(=O)Nc1cc(CN2C[C@@H](C(F)(F)F)NC2=O)ccn1)C1CCC(F)(F)CC1` [Example 99, (S)-2-(3-Benzylureido)-2-(4,4-difluorocyclohexyl)-N-(4-(((S)-2-oxo-4-(trifluoromethyl)imidazolidin-1-yl)methyl)pyridin-2-yl)acetamide] showed an IC50 of 6790 nM. `COCC(NC(=O)CCC(F)(F)F)c1ccnc(NC(=O)[C@@H](NC(=O)OC(C)(C)C)C2CCC(F)(F)CC2)c1` (single isomer, unassigned) [Example 132] was tested, and the IC50 was 7700 nM. Work on `CCc1nonc1C(=O)N[C@H](C(=O)Nc1cc(CN2C[C@@H](C(F)(F)F)NC2=O)ccn1)[C@@H](C)OC(C)(C)C` [Example 129, N-((2S,3R)-3-(tert-butoxy)-1-oxo-1-((4-(((S)-2-oxo-4-(trifluoromethyl)-imidazolidin-1-yl)methyl)-pyridin-2-yl)amino)butan-2-yl)-4-ethyl-1,2,5-oxa-diazole-3-carboxamide] yielded an IC50 of 533 nM. Work on `CC(C)(C)OC(=O)N[C@H](C(=O)Nc1cc(CN2C(=O)NC(C)(C)C2=O)ccn1)C1CCC(F)(F)CC1` [Example 27, Tert-butyl (S)-(1-(4,4-difluorocyclohexyl)-2-((4-((4,4-dimethyl-2,5-dioxoimidazolidin-1-yl)methyl)pyridin-2-yl)amino)-2-oxoethyl)carbamate] yielded an IC50 of 14900 nM. Work on “N-((S)-1-(4,4-difluorocyclohexyl)-2-oxo-2-((4-(2-((S)-2-oxo-4-(trifluoromethyl)imidazolidin-1-yl)propan-2-yl)pyridin-2-yl)amino)ethyl)-1-isopropyl-1H-pyrazole-5-carboxamide [Example 175]” yielded an IC50 of 384 nM. `COC[C@H](c1ccnc(NC(=O)[C@@H](NC(=O)c2ccnn2C)C2CCC(F)(F)CC2)c1)N1CC(F)(F)CNC1=O` [Example 180, N-((S)-2-((4-((S)-1-(5,5-difluoro-2-oxotetrahydropyrimidin-1(2H)-yl)-2-methoxyethyl)pyridin-2-yl)amino)-1-(4,4-difluorocyclohexyl)-2-oxoethyl)-1-methyl-1H-pyrazole-5-carboxamide] showed an IC50 of 73 nM. `CCc1conc1C(=O)NC(C(=O)Nc1cc([C@@H](CC)N2C[C@@H](C(F)(F)F)NC2=O)ccn1)C1CCC(F)(F)CC1` (stereo in doubt) [Example 208, N—((S)-1-(4,4-difluorocyclohexyl)-2-oxo-2-((4-((R)-1-((S)-2-oxo-4-(trifluoromethyl)imidazolidin-1-yl)propyl)pyridin-2-yl)amino)ethyl)-4-ethylisoxazole-3-carboxamide] gave an IC50 of 31 nM. Molecule `CCn1nccc1C(=O)NC(C(=O)Nc1cc([C@@H](COC)N2C[C@@H](C(F)(F)F)NC2=O)ccn1)C1CCC(C)(F)CC1` (single isomer, unassigned) [Example 299] has an IC50 of 72 nM. With `CC(C)(C)OC(=O)NC(C(=O)Nc1cc(CN2C[C@@H](C(F)(F)F)NC2=O)ccn1)C1CCC(F)(F)CC1` (stereo in doubt) [Example 6, Tert-butyl N-[(1S)-1-(4,4-difluorocyclohexyl)-2-oxo-2-[[4-[[(4S)-2-oxo-4-(trifluoro-methyl)imidazolidin-1-yl]methyl]-2-pyridyl]amino]ethyl]carbamate] the IC50 was 566 nM. `COCC(c1ccnc(NC(=O)[C@@H](NC(=O)c2ncccc2C)[C@H]2CC[C@H](C)CC2)c1)N1C[C@@H](C(F)(F)F)NC1=O` (stereo partly drawn) [Example 98, N-((1S)-2-((4-(2-Methoxy-1-((S)-2-oxo-4-(trifluoromethyl)imidazolidin-1-yl)ethyl)pyridin-2-yl)amino)-1-((1r,4S)-4-methylcyclohexyl)-2-oxoethyl)-3-methyl-picolinamide] was tested, and the IC50 was 1960 nM. `Cn1nccc1C(=O)N[C@@H](COC(C)(C)C(F)(F)F)C(=O)Nc1cc(CN2C[C@@H](C(F)(F)F)NC2=O)ccn1` [Example 275, 1-methyl-N-((S)-1-oxo-1-((4-(((S)-2-oxo-4-(trifluoromethyl)imidazolidin-1-yl)methyl)pyridin-2-yl)amino)-3-((1,1,1-trifluoro-2-methylpropan-2-yl)oxy)propan-2-yl)-1H-pyrazole-5-carboxamide] gave an IC50 of 946 nM. Work on `COC[C@H](c1ccnc(NC(=O)C(NC(=O)c2ccnn2C(C)C)C2CCC(F)CC2)c1)N1C[C@@H](C(F)(F)F)NC1=O` (single isomer, unassigned) [Example 289] yielded an IC50 of 125 nM. `COC[C@H](c1ccnc(NC(=O)C(NC(=O)c2nonc2C2CC2)C2CCC(C)(F)CC2)c1)N1C[C@@H](C(F)(F)F)NC1=O` (single isomer, unassigned) [Example 296] was tested, and the IC50 was 4490 nM. For `COC[C@H](c1ccnc(NC(=O)[C@@H](NC(=O)c2ccnn2C(C)C)C2CCC(Cl)CC2)c1)N1C[C@@H](C(F)(F)F)NC1=O` (stereo partly drawn) [Example 312, N-((1S)-1-(4-chlorocyclohexyl)-2-((4-((S)-2-methoxy-1-((S)-2-oxo-4-(trifluoromethyl)imidazolidin-1-yl)ethyl)pyridin-2-yl)amino)-2-oxoethyl)-1-isopropyl-1H-pyrazole-5-carboxamide], the IC50 was 121 nM. Molecule `COCC(NC(=O)CCC(F)(F)F)c1ccnc(NC(=O)[C@@H](NC(=O)c2nonc2C2CC2)C2CCC(F)(F)CC2)c1` (single isomer, unassigned) [Example 134] has an IC50 of 1250 nM. With `COCC(c1ccnc(NC(=O)[C@@H](NC(=O)C(F)(F)c2ccccc2)[C@H]2CC[C@H](C)CC2)c1)N1C[C@@H](C(F)(F)F)NC1=O` (single isomer, unassigned) [Example 150] the IC50 was 61 nM. Molecule `[2H]C([2H])([2H])C([2H])([2H])n1nccc1C(=O)N[C@H](C(=O)Nc1cc([C@@H](COC)N2C[C@@H](C(F)(F)F)NC2=O)ccn1)C1CCC(F)(F)CC1` [Example 189, N-((S)-1-(4,4-difluorocyclohexyl)-2-((4-((S)-2-methoxy-1-((S)-2-oxo-4-(trifluoromethyl)imidazolidin-1-yl)ethyl)pyridin-2-yl)amino)-2-oxoethyl)-1-(ethyl-d5)-1H-pyrazole-5-carboxamide] has an IC50 of 65 nM. Work on `CC(C)(C)OC(=O)N[C@H](C(=O)Nc1cc(C(NC(=O)CCC(F)(F)F)C2CC2)ccn1)[C@H]1CC[C@H](C)CC1` (single isomer, unassigned; diastereomer 1) [Example 71] yielded an IC50 of 197 nM.
